# From US10870647B2, “Imidazopyridine derivative, method for preparing same, and pharmaceutical composition containing same as active ingredient for preventing or treating cancer” (DAEGU-GYEONGBUK MEDICAL INNOVATION FOUNDATION, priority 2016, dated 2020)
# Experiments:
# Test in all cases: Kinase selectivity, scanMAX Kinase assay panel (DiscoverX), % control at 1 uM
# Type in all cases: binding
# [1] = target: T1, scanMAX Kinase assay panel (Homo sapiens, UniProt O96013); conditions: PAK4; 1 uM; read-out: Percent Control (%)
# T1 construct: purchased DiscoverX
# T1 sequence (O96013 whole entry): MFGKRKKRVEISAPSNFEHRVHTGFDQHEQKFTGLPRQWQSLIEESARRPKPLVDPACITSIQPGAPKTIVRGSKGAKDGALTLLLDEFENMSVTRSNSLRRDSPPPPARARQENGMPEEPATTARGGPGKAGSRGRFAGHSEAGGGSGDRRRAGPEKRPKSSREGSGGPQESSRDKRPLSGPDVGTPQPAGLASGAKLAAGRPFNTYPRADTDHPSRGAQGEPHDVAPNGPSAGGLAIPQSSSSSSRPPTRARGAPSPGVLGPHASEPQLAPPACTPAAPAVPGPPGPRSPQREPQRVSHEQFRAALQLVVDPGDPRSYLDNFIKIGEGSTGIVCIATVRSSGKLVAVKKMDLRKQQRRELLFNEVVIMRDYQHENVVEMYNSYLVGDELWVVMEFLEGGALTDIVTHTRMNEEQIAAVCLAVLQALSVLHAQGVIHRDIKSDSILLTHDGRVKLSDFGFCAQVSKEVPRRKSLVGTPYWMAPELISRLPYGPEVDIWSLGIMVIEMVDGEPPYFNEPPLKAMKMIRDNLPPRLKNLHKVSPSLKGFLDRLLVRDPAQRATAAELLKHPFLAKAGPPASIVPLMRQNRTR
# Outline: (§1)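 Compounds were tested at 1 uM in DMSO against each enzyme in the panel. Percent control was calculated as (compound − positive control)/(negative control − positive control) × 100, and a compound was scored active on a kinase when this value fell below 35.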
# [2] = target: T2, scanMAX Kinase assay panel (Homo sapiens, UniProt Q00535); conditions: CDK5; 1 uM; read-out: Percent Control (%)
# T2 construct: purchased DiscoverX
# T2 sequence (Q00535 whole entry): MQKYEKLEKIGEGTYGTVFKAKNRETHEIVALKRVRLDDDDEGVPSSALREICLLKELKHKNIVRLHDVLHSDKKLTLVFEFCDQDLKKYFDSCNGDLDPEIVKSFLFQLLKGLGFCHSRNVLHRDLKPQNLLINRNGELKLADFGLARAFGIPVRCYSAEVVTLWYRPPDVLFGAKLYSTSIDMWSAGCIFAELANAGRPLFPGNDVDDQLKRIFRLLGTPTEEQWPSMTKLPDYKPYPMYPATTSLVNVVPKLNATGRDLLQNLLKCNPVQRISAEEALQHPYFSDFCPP
# Outline: as §1
# [3] = target: T3, scanMAX Kinase assay panel (Homo sapiens, UniProt Q86V86); conditions: PIM3; 1 uM; read-out: Percent Control (%)
# T3 construct: purchased DiscoverX
# Outline: as §1
# [4] = target: T4, scanMAX Kinase assay panel (Homo sapiens, UniProt Q13464); conditions: ROCK1; 1 uM; read-out: Percent Control (%)
# T4 construct: purchased DiscoverX
# T4 sequence (Q13464 whole entry): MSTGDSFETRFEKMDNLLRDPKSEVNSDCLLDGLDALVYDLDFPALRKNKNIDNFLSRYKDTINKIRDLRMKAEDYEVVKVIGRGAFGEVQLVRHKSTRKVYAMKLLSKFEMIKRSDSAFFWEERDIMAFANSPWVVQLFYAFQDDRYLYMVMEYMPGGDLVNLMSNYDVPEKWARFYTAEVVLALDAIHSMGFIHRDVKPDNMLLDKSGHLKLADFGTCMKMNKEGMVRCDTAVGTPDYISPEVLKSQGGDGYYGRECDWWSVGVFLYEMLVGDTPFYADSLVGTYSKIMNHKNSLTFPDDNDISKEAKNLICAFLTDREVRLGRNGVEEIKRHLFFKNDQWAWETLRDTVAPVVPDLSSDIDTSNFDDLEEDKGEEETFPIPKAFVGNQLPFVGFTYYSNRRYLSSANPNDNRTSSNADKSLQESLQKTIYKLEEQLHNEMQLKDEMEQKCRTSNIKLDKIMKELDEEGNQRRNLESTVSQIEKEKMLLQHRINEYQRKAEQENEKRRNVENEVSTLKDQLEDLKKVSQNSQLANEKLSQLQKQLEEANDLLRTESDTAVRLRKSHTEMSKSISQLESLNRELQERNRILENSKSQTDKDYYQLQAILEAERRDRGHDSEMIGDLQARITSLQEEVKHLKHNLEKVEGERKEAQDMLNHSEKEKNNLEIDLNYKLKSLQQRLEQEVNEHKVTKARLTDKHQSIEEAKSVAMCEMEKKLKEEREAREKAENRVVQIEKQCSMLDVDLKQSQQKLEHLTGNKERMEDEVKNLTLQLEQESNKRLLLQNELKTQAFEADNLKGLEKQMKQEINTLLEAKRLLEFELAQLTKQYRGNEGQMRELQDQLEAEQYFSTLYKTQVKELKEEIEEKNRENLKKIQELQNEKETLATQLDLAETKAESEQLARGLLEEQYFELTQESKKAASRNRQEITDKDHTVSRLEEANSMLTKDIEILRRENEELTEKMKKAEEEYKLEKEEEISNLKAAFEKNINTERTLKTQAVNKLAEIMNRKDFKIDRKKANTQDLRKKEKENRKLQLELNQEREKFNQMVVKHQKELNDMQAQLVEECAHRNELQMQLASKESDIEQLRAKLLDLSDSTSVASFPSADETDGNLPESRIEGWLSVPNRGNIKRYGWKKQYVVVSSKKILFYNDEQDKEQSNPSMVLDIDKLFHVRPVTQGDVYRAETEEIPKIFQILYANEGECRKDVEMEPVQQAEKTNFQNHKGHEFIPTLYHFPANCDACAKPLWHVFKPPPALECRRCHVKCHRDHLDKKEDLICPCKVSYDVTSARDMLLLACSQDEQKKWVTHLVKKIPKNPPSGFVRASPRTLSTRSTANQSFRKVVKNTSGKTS
# Outline: as §1
# [5] = target: T5, scanMAX Kinase assay panel (Homo sapiens, UniProt Q13164); conditions: ERK5; 1 uM; read-out: Percent Control (%)
# T5 construct: purchased DiscoverX
# T5 sequence (Q13164 whole entry): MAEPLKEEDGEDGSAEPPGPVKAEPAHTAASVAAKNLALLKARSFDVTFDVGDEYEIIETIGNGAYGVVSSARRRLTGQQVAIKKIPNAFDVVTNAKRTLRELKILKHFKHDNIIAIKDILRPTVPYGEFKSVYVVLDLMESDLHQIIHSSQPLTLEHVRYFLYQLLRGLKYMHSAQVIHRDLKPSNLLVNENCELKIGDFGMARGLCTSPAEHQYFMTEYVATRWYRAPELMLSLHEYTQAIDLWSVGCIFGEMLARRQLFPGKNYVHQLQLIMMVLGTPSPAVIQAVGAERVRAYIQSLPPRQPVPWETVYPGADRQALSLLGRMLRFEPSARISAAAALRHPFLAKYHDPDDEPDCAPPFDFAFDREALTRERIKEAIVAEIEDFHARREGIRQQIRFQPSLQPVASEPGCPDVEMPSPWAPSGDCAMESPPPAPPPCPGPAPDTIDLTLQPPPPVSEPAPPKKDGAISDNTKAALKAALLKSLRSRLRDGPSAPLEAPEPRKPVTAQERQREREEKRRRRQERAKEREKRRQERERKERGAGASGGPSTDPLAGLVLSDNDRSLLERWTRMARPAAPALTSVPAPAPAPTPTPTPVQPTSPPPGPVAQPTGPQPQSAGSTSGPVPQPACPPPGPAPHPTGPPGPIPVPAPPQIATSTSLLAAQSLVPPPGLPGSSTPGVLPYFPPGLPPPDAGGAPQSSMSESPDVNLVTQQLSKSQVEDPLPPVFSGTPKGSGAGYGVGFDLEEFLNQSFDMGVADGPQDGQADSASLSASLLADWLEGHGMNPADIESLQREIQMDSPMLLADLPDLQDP
# Outline: as §1
# [6] = target: T6, scanMAX Kinase assay panel (Homo sapiens, UniProt Q9UHD2); conditions: TBK1; 1 uM; read-out: Percent Control (%)
# T6 construct: purchased DiscoverX
# T6 sequence (Q9UHD2 1-729): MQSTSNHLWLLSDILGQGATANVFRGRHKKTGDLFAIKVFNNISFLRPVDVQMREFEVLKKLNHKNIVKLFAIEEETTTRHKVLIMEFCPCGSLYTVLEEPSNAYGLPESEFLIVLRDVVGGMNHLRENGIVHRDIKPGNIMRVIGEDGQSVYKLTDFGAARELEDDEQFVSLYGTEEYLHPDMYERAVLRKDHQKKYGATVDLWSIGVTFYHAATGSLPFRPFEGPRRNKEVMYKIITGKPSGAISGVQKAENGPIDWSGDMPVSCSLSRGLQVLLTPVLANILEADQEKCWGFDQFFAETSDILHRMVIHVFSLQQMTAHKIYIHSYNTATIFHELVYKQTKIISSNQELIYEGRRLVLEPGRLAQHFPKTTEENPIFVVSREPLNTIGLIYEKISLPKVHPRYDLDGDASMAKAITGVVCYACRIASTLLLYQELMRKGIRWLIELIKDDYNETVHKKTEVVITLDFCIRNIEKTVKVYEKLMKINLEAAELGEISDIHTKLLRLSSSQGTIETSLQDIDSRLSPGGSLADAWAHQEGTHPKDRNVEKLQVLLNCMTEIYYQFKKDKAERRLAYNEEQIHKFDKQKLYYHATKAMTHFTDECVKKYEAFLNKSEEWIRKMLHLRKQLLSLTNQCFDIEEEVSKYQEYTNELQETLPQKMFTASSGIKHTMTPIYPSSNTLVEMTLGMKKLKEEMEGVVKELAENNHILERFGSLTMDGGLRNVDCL
# Outline: as §1
# [7] = target: T7, scanMAX Kinase assay panel (Homo sapiens, UniProt P50750); conditions: CDK9; 1 uM; read-out: Percent Control (%)
# T7 construct: purchased DiscoverX
# Outline: as §1
# [8] = target: T8, scanMAX Kinase assay panel (Homo sapiens, UniProt Q9NY57); conditions: YANK2; 1 uM; read-out: Percent Control (%)
# T8 construct: purchased DiscoverX
# T8 sequence (Q9NY57 whole entry): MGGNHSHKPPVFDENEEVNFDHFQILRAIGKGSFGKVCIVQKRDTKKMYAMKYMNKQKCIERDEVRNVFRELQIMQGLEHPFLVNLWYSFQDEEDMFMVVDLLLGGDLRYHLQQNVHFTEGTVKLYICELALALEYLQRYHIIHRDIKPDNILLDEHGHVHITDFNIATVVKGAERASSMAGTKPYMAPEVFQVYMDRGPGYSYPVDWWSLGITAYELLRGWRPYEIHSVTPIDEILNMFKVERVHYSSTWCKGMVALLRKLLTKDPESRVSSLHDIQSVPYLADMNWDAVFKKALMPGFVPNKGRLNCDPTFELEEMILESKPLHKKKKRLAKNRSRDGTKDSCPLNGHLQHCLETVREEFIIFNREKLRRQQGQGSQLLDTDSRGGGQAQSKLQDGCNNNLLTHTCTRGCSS
# Outline: as §1
# [9] = target: T9, scanMAX Kinase assay panel (Homo sapiens, UniProt P53671); conditions: LIMK2; 1 uM; read-out: Percent Control (%)
# T9 construct: purchased DiscoverX
# T9 sequence (P53671 whole entry): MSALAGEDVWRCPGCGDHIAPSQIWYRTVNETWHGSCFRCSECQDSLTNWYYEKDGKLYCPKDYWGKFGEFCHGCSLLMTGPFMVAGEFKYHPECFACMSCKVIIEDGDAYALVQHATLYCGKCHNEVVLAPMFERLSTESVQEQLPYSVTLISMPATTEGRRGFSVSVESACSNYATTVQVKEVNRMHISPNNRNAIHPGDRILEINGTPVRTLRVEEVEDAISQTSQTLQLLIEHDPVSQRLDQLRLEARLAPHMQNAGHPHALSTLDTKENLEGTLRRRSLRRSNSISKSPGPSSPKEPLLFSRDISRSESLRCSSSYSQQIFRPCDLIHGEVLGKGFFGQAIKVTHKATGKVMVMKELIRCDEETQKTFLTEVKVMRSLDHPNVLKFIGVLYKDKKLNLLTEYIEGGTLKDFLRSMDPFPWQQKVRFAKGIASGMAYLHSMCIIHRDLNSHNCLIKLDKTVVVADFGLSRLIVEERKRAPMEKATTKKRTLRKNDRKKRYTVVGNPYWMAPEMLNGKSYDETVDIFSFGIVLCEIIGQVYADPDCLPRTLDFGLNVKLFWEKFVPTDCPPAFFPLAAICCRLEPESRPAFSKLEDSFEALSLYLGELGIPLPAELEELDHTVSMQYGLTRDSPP
# Outline: as §1
# [10] = target: T10, scanMAX Kinase assay panel (Homo sapiens, UniProt P37173); conditions: TGFBR2; 1 uM; read-out: Percent Control (%)
# T10 construct: purchased DiscoverX
# T10 sequence (P37173 23-567): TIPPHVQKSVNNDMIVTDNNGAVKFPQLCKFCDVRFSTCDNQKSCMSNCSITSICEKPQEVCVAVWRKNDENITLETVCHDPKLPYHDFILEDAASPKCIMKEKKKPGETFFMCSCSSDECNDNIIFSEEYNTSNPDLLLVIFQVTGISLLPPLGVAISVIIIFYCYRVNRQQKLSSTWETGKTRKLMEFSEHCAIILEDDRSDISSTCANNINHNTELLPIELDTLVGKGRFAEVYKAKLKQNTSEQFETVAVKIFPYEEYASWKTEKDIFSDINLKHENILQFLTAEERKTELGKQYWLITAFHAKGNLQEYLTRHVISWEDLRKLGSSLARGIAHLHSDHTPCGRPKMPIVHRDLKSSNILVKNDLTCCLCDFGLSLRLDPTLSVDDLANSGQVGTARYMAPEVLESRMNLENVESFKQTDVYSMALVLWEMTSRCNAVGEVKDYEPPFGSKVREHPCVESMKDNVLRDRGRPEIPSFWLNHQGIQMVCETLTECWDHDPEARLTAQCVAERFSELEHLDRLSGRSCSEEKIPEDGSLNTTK
# Outline: as §1
# [11] = target: T11, scanMAX Kinase assay panel (Homo sapiens, UniProt Q15139); conditions: PRKD1; 1 uM; read-out: Percent Control (%)
# T11 construct: purchased DiscoverX
# T11 sequence (Q15139 1-912): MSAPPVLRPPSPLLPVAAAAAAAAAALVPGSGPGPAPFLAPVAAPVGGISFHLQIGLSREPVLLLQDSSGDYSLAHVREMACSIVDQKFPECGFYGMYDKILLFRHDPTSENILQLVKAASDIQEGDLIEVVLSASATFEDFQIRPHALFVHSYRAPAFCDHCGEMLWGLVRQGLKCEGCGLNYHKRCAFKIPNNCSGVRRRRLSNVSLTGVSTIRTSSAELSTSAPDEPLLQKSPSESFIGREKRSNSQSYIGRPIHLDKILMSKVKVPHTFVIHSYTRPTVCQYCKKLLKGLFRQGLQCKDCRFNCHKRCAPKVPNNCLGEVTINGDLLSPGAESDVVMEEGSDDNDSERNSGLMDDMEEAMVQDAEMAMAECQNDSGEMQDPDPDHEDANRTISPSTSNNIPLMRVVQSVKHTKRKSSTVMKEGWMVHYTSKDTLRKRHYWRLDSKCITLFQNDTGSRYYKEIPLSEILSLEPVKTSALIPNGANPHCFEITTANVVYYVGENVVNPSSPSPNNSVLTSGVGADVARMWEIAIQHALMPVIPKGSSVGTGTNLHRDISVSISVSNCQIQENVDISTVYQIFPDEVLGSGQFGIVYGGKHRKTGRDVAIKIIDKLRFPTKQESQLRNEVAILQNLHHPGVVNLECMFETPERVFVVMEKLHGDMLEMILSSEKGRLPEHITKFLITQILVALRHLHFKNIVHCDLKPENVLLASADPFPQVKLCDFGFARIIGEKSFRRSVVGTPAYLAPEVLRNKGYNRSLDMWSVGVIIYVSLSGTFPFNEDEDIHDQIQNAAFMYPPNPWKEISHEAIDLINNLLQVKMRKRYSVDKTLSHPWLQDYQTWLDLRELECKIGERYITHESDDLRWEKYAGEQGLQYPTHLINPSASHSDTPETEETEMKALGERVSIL
# Outline: as §1
# [12] = target: T12, scanMAX Kinase assay panel (Homo sapiens, UniProt P10721, T670I/V559D); conditions: KIT (V559D, T670I); 1 uM; read-out: Percent Control (%)
# T12 construct: purchased DiscoverX
# Outline: as §1
SMILES,remaining binding at 1 µM [1] [%],remaining binding at 1 µM [2] [%],remaining binding at 1 µM [3] [%],remaining binding at 1 µM [4] [%],remaining binding at 1 µM [5] [%],remaining binding at 1 µM [6] [%],remaining binding at 1 µM [7] [%],remaining binding at 1 µM [8] [%],remaining binding at 1 µM [9] [%],remaining binding at 1 µM [10] [%],remaining binding at 1 µM [11] [%],remaining binding at 1 µM [12] [%]
"Cc1ccc(C(=O)Nc2ccc(CN3CCN(C)CC3)c(C(F)(F)F)c2)cc1C#Cc1cnc2c(Nc3cnn(C)c3)cccn12 [Example 1, 4-methyl-3-((8-((1-methyl-1H-pyrazol-4-yl)amino)imidazo[1,2-a]pyridin-3-yl)ethynyl)-N-(4-((4-methylpiperazin-1-yl)methyl)-3-(trifluoromethyl)phenyl)benzamide]",85,30,88,89,78,68,72,100,3,24,54,0
"Cc1cn(-c2cc(NC(=O)c3ccc(C)c(C#Cc4cnc5c(Nc6cnn(C)c6)cccn45)c3)cc(C(F)(F)F)c2)cn1 [Example 12, 4-methyl-N-(3-(4-methyl-1H-imidazol-1-yl)-5-(trifluoromethyl)phenyl)-3-((8-((1-methyl-1H-pyrazol-4-yl)amino)imidazo[1,2-a]pyridin-3-yl)ethynyl)benzamide]",98,89,90,100,90,84,88,99,50,94,94,3
Cc1ccc(NC(=O)C2(C(=O)Nc3ccc(F)cc3)CC2)cc1C#Cc1cnc2c(Nc3cnn(C(C)C)c3)cccn12 [Example 78],100,100,100,100,100,100,100,100,100,100,100,63
